Data taken from patent US9682928B2 (NeuroPro Therapeutics, Inc., priority 2009, dated 2017).
Entries after “also recorded” stand apart in the source; their conditions may differ.

Legend:
[1] = test system: Male CD-1 mice; assay: 52° C. warm water tail-flick test (acute nociceptive study); type: in vivo, mouse; conditions: for Activity in tail-flick test: all doses starting at 32 mg/kg (NTP-2014) or 56 mg/kg (NTP-2026, NTP-2024); for % Antinociception: A50 not determined
Text: Subjects: Male CD-1 (25-35 g, Charles River) were used for all studies. Mice were housed in groups of five in Plexiglas chambers with food and water available ad libitum. All animals were maintained on a 12 hr light/dark cycle (lights on at 7:00 AM) in a temperature- and humidity-controlled animal colony. The health status of the animals used in this study were examined on arrival. Only animals in good health were acclimatized to laboratory conditions and used in the study. The acclimation period to the vivarium was a minimum of 7 days. All animal experiments were performed under an approved protocol in accordance with institutional guidelines and in accordance with the Guide for the Care and Use of Laboratory Animals as adopted and promulgated by the National Institutes of Health.
Behavioral Testing: Efficacy of the test compounds were assessed using the 52° C. warm water tail-flick test. The latency to the first sign of a rapid tail-flick was taken as the behavioral endpoint (Jannsen, et al. 1963). Each mouse was first tested for baseline latency by immersing its tail in the water and recording the time to response. Mice not responding within 5 seconds were excluded from further testing. Test compounds were then injected and the mice were rested for thermal latencies at 10, 20, 30, 45, 60, 90, 120 and 180 minutes post-injection (if a drug effect dropped below 20% for the group average then the testing was halted for that group). Antinociception was calculated by the following formula: % Antinociception=100×(test latency−control latency)/(10-control latency). A maximum score was assigned (100%) to animals not responding within 10 seconds to avoid tissue damage.
Preparation of Test Materials: NTP-2014 (m.w. 420.52 for free base; lot number: 004JXS047) was dissolved in 0.2% hydroxypropylmethylcellulose (HPMC) in physiological saline to yield final concentrations of between 3.2 and 10 mg/ml (pH ˜7.4). NTP-2024 (m.w. 433.52 for free base; lot number: 024DGM048) was dissolved in 0.2% HPMC in physiological saline to yield final concentrations of between 5.6 and 18 mg/ml (pH ˜7.4). NTP-2026 (m.w. 462.61 for free base; lot number: 002JRA064) was first dissolved in 100% ETOH (10× solution) and then this stock solution was diluted to final concentrations of 5.6-10 mg/ml using 0.2% HPMC in physiological saline (pH ˜7.4). Final ETOH concentration was approximately 10%. Tween 80 (1-2 drops) was added to all solutions to aid in solubilization of compounds.
All groups contained n=8-10 mice.

[2] = test system: Rat; assay: Exploratory Bennett neuropathic pain (rat), plus inhibitor; type: in vivo
[3] = test system: male Sprague Dawley rats; assay: Taxol-induced peripheral neuropathy (rat), mechanical allodynia (von Frey); type: in vivo; conditions: for Pain relief as measured by mechanical allodynia: rat, IP, Day 32, 75 mg/kg (NTP-2014, NTP-2026)
Text: In this study, an animal model of Taxol-induced sensory neuropathy was employed to evaluate the effects of the sponsor's test compounds, for response to tactile sensitivity using von Frey test of mechanical allodynia. […] Therefore, Taxol-induced mechanical allodynia was employed as the measured behavioral endpoint.
The test substance was homogenized and dispersed using a mortar and a pestle in 0.2% hydroxypropylmethylcellulose (HPMC) in physiological saline, which served as the vehicle. Test articles were administered intraperitoneally in dose volumes of 10 mL/kg body weight. Preparations were made freshly for each day of administration.
Prior to test article NTP-2024 and vehicle control group administration, rats were pretreated at 30 minutes and again at 10 minutes prior to test article administration with a general metabolic inhibitor, piperonyl butoxide (150 mg/kg i.p.) in DMSO, at a volume of 1 mL/kg.
The reference article, Gabapentin, was formulated in saline to a concentration of 100 mg/mL and delivered […] at a dose volume of 1 mL/kg body weight (for a dosing concentration of 100 mg/kg).
All animals were administered Taxol, 2 mg/kg, IP at a dose volume of 1 mL/kg, on Days 1, 3, 5 and 7.
On Day 32, all animals received a single intraperitoneal injection of test article or vehicle according to Tables 1 and 2. For group 1 (vehicle), rats were pre-treated with Piperonyl butoxide (150 mg/kg IP, dose volume of 1 mL/kg) at 30 minutes and again at 10 minutes prior to vehicle administration. Four animals in group 3 (NTP-2024) were also pre-treated with Piperonyl butoxide (150 mg/kg IP, dose volume of 1 mL/kg) at 30 minutes and again at 10 minutes prior to vehicle administration. Animals in Groups 2, 3, 4, & 5 were pre-treated with Saline (dose volume of 1 mL/kg, IP) at 30 minutes and again at 10 minutes prior to test article administration. With the exception of animals in group 2, the animals received an IP injection of vehicle or test article 30 min prior to mechanical allodynia testing. Animals were dosed at a volume of 10 mL/kg.
Animals in group 2, received an IP injection of Gabapentin 90 minutes prior to mechanical allodynia testing. Animals were dosed at a volume of 1 mL/kg.
All animals underwent von Frey testing for mechanical allodynia. On testing days, the animals were returned to the chambers and allowed approximately 15 minutes to explore their surroundings prior to testing. A series of filaments were applied to the left hind paw. A 2.0 g filament was first applied to the plantar surface, if the animal responded to the filament (by lifting its paw) then the next smaller filament was applied. […] This is repeated in an “Up down” method for four responses after the first initial change in response.
The original study design used thermal hyperalgesia as the main parameter for testing the ability of the test compounds to ameliorate the pain associated with the Taxol injection. The treatment inclusion was set at a 20% drop from baseline values as determined on Day 28. […] The study design was amended to use mechanical allodynia as the testing parameter. […] This changed the testing days from Day 28 to Day 31 for allodynia confirmation and Day 29 to Day 32 for testing the article efficacy. Additional animals were received to complete the group size designation. These animals were tested for mechanical allodynia only. The study was then further amended to remove the piperonyl butoxide as a pre-treatment for Group 3 (NTP-2024). […] Because this study was conducted in two portions, four (4) animals from Group 3 received the metabolic inhibitor and five (5) received Saline as a pre-treatment.
The group mean results were analyzed versus the vehicle control group using a two way ANOVA, followed by a Bonferroni post-hoc test. Individual groups were tested pre and post dose using a paired t-test.

CCCCN(CCCC)c1cc(C(=O)O)cc(S(N)(=O)=O)c1Oc1ccccc1 [NTP-2014, 3-Aminosulfonyl-5-N,N-dibutylamino-4-phenoxybenzoic acid]
Activity in tail-flick test ([1]; mice): effective analgesic effects; also recorded: Significant activity in tail-
% anti-nociception relative to high dose morphine ([1]; tail-flick test, mice, without behavioral observations): nociception equal to high
Activity against tactile allodynia [2]: Significant effects against tactile allodynia
Activity compared to GBP at 100 mg/kg ([3]; 75 mg/kg): mechanical allodynia-equal to if not better activity
Pain relief as measured by mechanical allodynia ([3]; 75 mg/kg): significant improvement in allodynia; also recorded: significant treatment effect; also recorded: effective analgesic effects

CCCCNc1cc(C(=O)NN2CCOCC2)cc(S(N)(=O)=O)c1Oc1ccccc1 [NTP-2024, N-Morpholinyl 3-Aminosulfonyl-5-N-butylamino-4-phenoxybenzamide]
% Antinociception ([1]; 180 mg/kg): ~48%
Activity in tail-flick test ([1]; mice): Significant activity in tail-
Activity against tactile allodynia [2]: Dose-related activity against tactile
Mean allodynia score ([3]; metabolic inhibitor pre-treatment removed): 8.04 g
Mean allodynia score ([3]; pre-treated with the metabolic inhibitor (PBx)): 14.92 g

CCCCNc1cc(C(=O)N(C)CCCN(C)C)cc(S(N)(=O)=O)c1Oc1ccccc1 [NTP-2026, N-(3-(Dimethylamino)propyl)-N-methyl 3-Aminosulfonyl-5-N-butylamino-4-phenoxybenzamide]
% Antinociception ([1]; 56 mg/kg): ~25%
Activity in tail-flick test ([1]; mice): Significant activity in tail-
Activity against tactile allodynia [2]: Very low doses tested, no significant
Animals with complete reversal of allodynia ([3]; group of nine rats): Three of the nine animals
Pain relief as measured by mechanical allodynia ([3]; 75 mg/kg): slight improvement; also recorded: Several animals demonstrated complete responses
